{"source": "patent US20260256792A1", "about": "“TREATMENT OF CHRONIC SPONTANEOUS URTICARIA BY ADMINISTERING (R)-2-[3-[4-AMINO-3-(2-FLUORO-4-PHENOXY-PHENYL)PYRAZOLO[3,4-D]PYRIMIDIN-1-YL]PIPERIDINE-1-CARBONYL]-4-METHYL-4-[4-(OXETAN-3-YL)PIPERAZIN-1-YL]PENT-2-ENENITRILE” (priority 2023, published 2026)", "test_system": "angioedema in CSU patients", "assay": "Phase 2 CSU study: angioedema activity score over 7 days (AAS7)", "assay_type": "in vivo, human", "details": "400 mg BID; for AAS7 = 0, OR (95% CI) for rilzabrutinib vs. placebo / AAS7 = 0, RRD (%) for rilzabrutinib vs. placebo (95% CI) / AAS7 Post-baseline Mean (SD) / Participants with AAS7 = 0, Responder n (%) / AAS7 % Change difference for rilzabrutinib vs. placebo LS Mean (95% CI) / AAS7 % Change from baseline LS Mean (SE) / AAS7 Change difference for rilzabrutinib vs. placebo LS Mean (95% CI) / AAS7 Change from baseline LS Mean (SE) / AAS7 = 0, Non-responder n (%): angioedema at baseline; for Non-responder n (%), AAS7 = 0 / OR (95% CI) for rilzabrutinib vs. placebo, AAS7 = 0 / Responder n (%), AAS7 = 0 / RRD (%) for rilzabrutinib vs. placebo (95% CI), AAS7 = 0: outlier removed", "description": "The study comprises a 12 week, randomized, double-blind, placebo-controlled, multi-center, dose-ranging efficacy and safety phase, followed by a 40 week open label extension (OLE) phase (see FIG. 1). The study consists of three phases and an optional OLE phase. […] The weekly angioedema activity score (AAS7) was proposed as a tertiary endpoint. […] Patients were to complete the AAS using the e-diary. The e-diary was to be used once daily on the same time of each day recording of participant's answers to the angioedema activity score over 7 days (AAS7) questionnaire."}
{"molecule": "CC(C)(C=C(C#N)C(=O)N1CCC[C@@H](n2nc(-c3ccc(Oc4ccccc4)cc3F)c3c(N)ncnc32)C1)N1CCN(C2COC2)CC1", "note": "[rilzabrutinib, (R)-2-[3-[4-amino-3-(2-fluoro-4-phenoxy-phenyl)pyrazolo[3,4-d]pyrimidin-1-yl]piperidine-1-carbonyl]-4-methyl-4-[4-(oxetan-3-yl)piperazin-1-yl]pent-2-enenitrile]", "values": [{"measurement": "AAS7 = 0, OR (95% CI) for rilzabrutinib vs. placebo", "setting": "Week 4, omalizumab-naïve", "result": 2.118}, {"measurement": "AAS7 = 0, RRD (%) for rilzabrutinib vs. placebo (95% CI)", "setting": "Week 4, omalizumab-naïve", "result": 16.8, "unit": "%"}, {"measurement": "AAS7 Post-baseline Mean (SD)", "setting": "Week 4, omalizumab-naïve", "result": "14.79 (17.89)"}, {"measurement": "Participants with AAS7 = 0, Responder n (%)", "setting": "Week 4, omalizumab-naïve", "result": "11 (42.3) n (%)"}, {"measurement": "AAS7 % Change difference for rilzabrutinib vs. placebo LS Mean (95% CI)", "setting": "Week 5, ITT", "result": "−14.36 (−40.13, 11.41) %"}, {"measurement": "AAS7 % Change from baseline LS Mean (SE)", "setting": "Week 5, ITT", "result": "−68.19 (10.08) %"}, {"measurement": "AAS7 Change difference for rilzabrutinib vs. placebo LS Mean (95% CI)", "setting": "Week 5, ITT", "result": "−6.53 (−17.51, 4.44)"}, {"measurement": "AAS7 Change from baseline LS Mean (SE)", "setting": "Week 5, ITT", "result": "−36.13 (4.29)"}, {"measurement": "AAS7 Post-baseline Mean (SD)", "setting": "Week 5, ITT", "result": "12.95 (20.09)"}, {"measurement": "Non-responder n (%), AAS7 = 0", "setting": "Week 5, omalizumab-naïve", "result": "14 (40.0) n (%)"}, {"measurement": "OR (95% CI) for rilzabrutinib vs. placebo, AAS7 = 0", "setting": "Week 5, omalizumab-naïve", "result": 1.574}, {"measurement": "Responder n (%), AAS7 = 0", "setting": "Week 5, omalizumab-naïve", "result": "21 (60.0) n (%)"}, {"measurement": "AAS7 % Change difference for rilzabrutinib vs. placebo LS Mean (95% CI)", "setting": "Week 5, omalizumab-naïve", "result": "−10.97 (−38.45, 16.50) %"}, {"measurement": "AAS7 = 0, Non-responder n (%)", "setting": "Week 5, omalizumab-naïve", "result": "13 (50.0) n (%)"}, {"measurement": "AAS7 = 0, OR (95% CI) for rilzabrutinib vs. placebo", "setting": "Week 5, omalizumab-naïve", "result": 2.390}, {"measurement": "AAS7 = 0, RRD (%) for rilzabrutinib vs. placebo (95% CI)", "setting": "Week 5, omalizumab-naïve", "result": 22.3, "unit": "%"}, {"measurement": "AAS7 Post-baseline Mean (SD)", "setting": "Week 5, omalizumab-naïve", "result": "13.98 (20.55)"}, {"measurement": "Participants with AAS7 = 0, Responder n (%)", "setting": "Week 5, omalizumab-naïve", "result": "13 (50.0) n (%)"}, {"measurement": "AAS7 % Change difference for rilzabrutinib vs. placebo LS Mean (95% CI)", "setting": "Week 6, ITT", "result": "−23.55 (−50.40, 3.31) %"}, {"measurement": "AAS7 Change difference for rilzabrutinib vs. placebo LS Mean (95% CI)", "setting": "Week 6, ITT", "result": "−10.15 (−21.84, 1.54)"}, {"measurement": "AAS7 Change from baseline LS Mean (SE)", "setting": "Week 6, ITT", "result": "−36.76 (4.50)"}, {"measurement": "AAS7 Post-baseline Mean (SD)", "setting": "Week 6, ITT", "result": "12.28 (18.70)"}, {"measurement": "Non-responder n (%), AAS7 = 0", "setting": "Week 6, omalizumab-naïve", "result": "17 (48.6) n (%)"}, {"measurement": "OR (95% CI) for rilzabrutinib vs. placebo, AAS7 = 0", "setting": "Week 6, omalizumab-naïve", "result": 1.118}, {"measurement": "RRD (%) for rilzabrutinib vs. placebo (95% CI), AAS7 = 0", "setting": "Week 6, omalizumab-naïve", "result": 2.9, "unit": "%"}, {"measurement": "Responder n (%), AAS7 = 0", "setting": "Week 6, omalizumab-naïve", "result": "18 (51.4) n (%)"}, {"measurement": "AAS7 % Change difference for rilzabrutinib vs. placebo LS Mean (95% CI)", "setting": "Week 6, omalizumab-naïve", "result": "−20.62 (−49.95, 8.72) %"}, {"measurement": "AAS7 = 0, Non-responder n (%)", "setting": "Week 6, omalizumab-naïve", "result": "15 (57.7) n (%)"}, {"measurement": "AAS7 = 0, OR (95% CI) for rilzabrutinib vs. placebo", "setting": "Week 6, omalizumab-naïve", "result": 1.828}, {"measurement": "AAS7 = 0, RRD (%) for rilzabrutinib vs. placebo (95% CI)", "setting": "Week 6, omalizumab-naïve", "result": 13.6, "unit": "%"}, {"measurement": "AAS7 Post-baseline Mean (SD)", "setting": "Week 6, omalizumab-naïve", "result": "13.26 (19.12)"}, {"measurement": "Participants with AAS7 = 0, Responder n (%)", "setting": "Week 6, omalizumab-naïve", "result": "11 (42.3) n (%)"}, {"measurement": "AAS7 % Change difference for rilzabrutinib vs. placebo LS Mean (95% CI)", "setting": "Week 7, ITT", "result": "−25.42 (−54.97, 4.13) %"}, {"measurement": "AAS7 % Change from baseline LS Mean (SE)", "setting": "Week 7, ITT", "result": "−71.37 (11.45) %"}, {"measurement": "AAS7 Change from baseline LS Mean (SE)", "setting": "Week 7, ITT", "result": "−37.72 (4.37)"}, {"measurement": "AAS7 Post-baseline Mean (SD)", "setting": "Week 7, ITT", "result": "13.39 (19.19)"}, {"measurement": "Non-responder n (%), AAS7 = 0", "setting": "Week 7, omalizumab-naïve", "result": "18 (51.4) n (%)"}, {"measurement": "OR (95% CI) for rilzabrutinib vs. placebo, AAS7 = 0", "setting": "Week 7, omalizumab-naïve", "result": 1.022}, {"measurement": "RRD (%) for rilzabrutinib vs. placebo (95% CI), AAS7 = 0", "setting": "Week 7, omalizumab-naïve", "result": 0.6, "unit": "%"}, {"measurement": "Responder n (%), AAS7 = 0", "setting": "Week 7, omalizumab-naïve", "result": "17 (48.6) n (%)"}, {"measurement": "AAS7 % Change difference for rilzabrutinib vs. placebo LS Mean (95% CI)", "setting": "Week 7, omalizumab-naïve", "result": "−23.13 (−55.14, 8.88) %"}, {"measurement": "AAS7 % Change from baseline LS Mean (SE)", "setting": "Week 7, omalizumab-naïve", "result": "−70.13 (12.07) %"}, {"measurement": "AAS7 = 0, Non-responder n (%)", "setting": "Week 7, omalizumab-naïve", "result": "15 (57.7) n (%)"}, {"measurement": "AAS7 = 0, OR (95% CI) for rilzabrutinib vs. placebo", "setting": "Week 7, omalizumab-naïve", "result": 1.515}, {"measurement": "AAS7 Post-baseline Mean (SD)", "setting": "Week 7, omalizumab-naïve", "result": "14.38 (19.63)"}, {"measurement": "Participants with AAS7 = 0, Responder n (%)", "setting": "Week 7, omalizumab-naïve", "result": "11 (42.3) n (%)"}, {"measurement": "AAS7 % Change difference for rilzabrutinib vs. placebo LS Mean (95% CI)", "setting": "Week 8, ITT", "result": "−29.34 (−59.45, 0.76) %"}, {"measurement": "AAS7 % Change from baseline LS Mean (SE)", "setting": "Week 8, ITT", "result": "−81.40 (11.62) %"}, {"measurement": "AAS7 Change difference for rilzabrutinib vs. placebo LS Mean (95% CI)", "setting": "Week 8, ITT", "result": "−13.31 (−24.25, −2.37)"}, {"measurement": "AAS7 Change from baseline LS Mean (SE)", "setting": "Week 8, ITT", "result": "−41.63 (4.21)"}, {"measurement": "AAS7 Post-baseline Mean (SD)", "setting": "Week 8, ITT", "result": "9.20 (16.24)"}, {"measurement": "Non-responder n (%), AAS7 = 0", "setting": "Week 8, omalizumab-naïve", "result": "14 (40.0) n (%)"}, {"measurement": "OR (95% CI) for rilzabrutinib vs. placebo, AAS7 = 0", "setting": "Week 8, omalizumab-naïve", "result": 1.991}, {"measurement": "RRD (%) for rilzabrutinib vs. placebo (95% CI), AAS7 = 0", "setting": "Week 8, omalizumab-naïve", "result": 17.0, "unit": "%"}, {"measurement": "Responder n (%), AAS7 = 0", "setting": "Week 8, omalizumab-naïve", "result": "21 (60.0) n (%)"}, {"measurement": "AAS7 % Change difference for rilzabrutinib vs. placebo LS Mean (95% CI)", "setting": "Week 8, omalizumab-naïve", "result": "−30.39 (−63.25, 2.47) %"}, {"measurement": "AAS7 % Change from baseline LS Mean (SE)", "setting": "Week 8, omalizumab-naïve", "result": "−80.38 (12.36) %"}, {"measurement": "AAS7 = 0, Non-responder n (%)", "setting": "Week 8, omalizumab-naïve", "result": "13 (50.0) n (%)"}, {"measurement": "AAS7 = 0, OR (95% CI) for rilzabrutinib vs. placebo", "setting": "Week 8, omalizumab-naïve", "result": 2.829}]}
